These are literature values, as cited in patent publication US20230263755A1, “STABILIZATION OF ACETAMINOPHEN IN AQUEOUS SOLUTION” (Nostrum Pharmaceuticals, LLC, priority 2022, published 2023).

Take `CC(=O)Nc1ccc(O)cc1` [acetaminophen, N-(4-hydroxyphenyl)acetamide]: the half-life result was “about 2 hours”.
